# System: 327498-153-R-J2-PDC complex spheroid growth, % test/control
# Experiment: Anticancer human tumor 327498-153-R-J2-PDC patient-derived uterine carcinosarcoma cell line growth inhibition [Asc]
# Conditions: for IC50: curve of first compound; for viability, T/C: stronger effect = lower value
# Outline: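 Tumor cells were grown as complex spheroids with human endothelial cells (HUVEC) and human mesenchymal stem cells as stroma. Agents were tested alone and in combination, in half-log steps down from the clinical Cmax, or from 10 microM where Cmax was unknown.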
# 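Note: spheroids exposed to compound for 7 days after 3 days of growth.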
# 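Throughout, for viability, T/C: 100% = DMSO vehicle control wells.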
smiles,measurement,setting,value
COc1c(OCCCN2CCOCC2)ccc2c3n(c(=NC(=O)c4cnc(N)nc4)nc12)CCN3 + Cc1c(S(C)(=O)=O)c(-c2cc(F)cc(N3CCN(c4ccc(NS(=O)(=O)c5ccc(NC(CCN6CCC(C(=O)OCCCP(=O)(O)O)CC6)CSc6ccccc6)c(S(=O)(=O)C(F)(F)F)c5)cc4)CC3)c2)c(-c2ccc(Cl)cc2)n1C(C)C,IC50,second compound 0.1 µM,104 nM
same,IC50,second compound 0.316 µM,96.5 nM
same,IC50,second compound 1 µM,79.2 nM
same,IC50,second compound 3.16 µM,86.4 nM
same,IC50,second compound 10 µM,168 nM
same,"viability, T/C","second compound 0.1 µM, first compound 0.00316 µM",81.3%
same,"viability, T/C","second compound 0.1 µM, first compound 0.01 µM",91.2%
same,"viability, T/C","second compound 0.1 µM, first compound 0.0316 µM",80.3%
same,"viability, T/C","second compound 0.1 µM, first compound 0.1 µM",46.8%
same,"viability, T/C","second compound 0.1 µM, first compound 0.316 µM",24.6%
same,"viability, T/C","second compound 0.1 µM, first compound 1 µM",5.06%
same,"viability, T/C","second compound 0.316 µM, first compound 0.00316 µM",91.3%
same,"viability, T/C","second compound 0.316 µM, first compound 0.01 µM",84.4%
same,"viability, T/C","second compound 0.316 µM, first compound 0.0316 µM",77.2%
same,"viability, T/C","second compound 0.316 µM, first compound 0.1 µM",48.7%
same,"viability, T/C","second compound 0.316 µM, first compound 0.316 µM",18.9%
same,"viability, T/C","second compound 0.316 µM, first compound 1 µM",4.02%
same,"viability, T/C","second compound 1 µM, first compound 0.00316 µM",91.1%
same,"viability, T/C","second compound 1 µM, first compound 0.01 µM",83.6%
same,"viability, T/C","second compound 1 µM, first compound 0.0316 µM",63.9%
same,"viability, T/C","second compound 1 µM, first compound 0.1 µM",48.7%
same,"viability, T/C","second compound 1 µM, first compound 0.316 µM",20.8%
same,"viability, T/C","second compound 1 µM, first compound 1 µM",3.26%
same,"viability, T/C","second compound 3.16 µM, first compound 0.00316 µM",91.5%
same,"viability, T/C","second compound 3.16 µM, first compound 0.01 µM",79.2%
same,"viability, T/C","second compound 3.16 µM, first compound 0.0316 µM",72.2%
same,"viability, T/C","second compound 3.16 µM, first compound 0.1 µM",48.9%
same,"viability, T/C","second compound 3.16 µM, first compound 0.316 µM",16.1%
same,"viability, T/C","second compound 3.16 µM, first compound 1 µM",2.71%
same,"viability, T/C","second compound 10 µM, first compound 0.00316 µM",166%
same,"viability, T/C","second compound 10 µM, first compound 0.01 µM",169%
same,"viability, T/C","second compound 10 µM, first compound 0.0316 µM",151%
same,"viability, T/C","second compound 10 µM, first compound 0.1 µM",73%
same,"viability, T/C","second compound 10 µM, first compound 0.316 µM",24%
same,"viability, T/C","second compound 10 µM, first compound 1 µM",4.08%
CCN1CCN(Cc2ccc(Nc3ncc(F)c(-c4cc(F)c5nc(C)n(C(C)C)c5c4)n3)nc2)CC1 + CCN1C(C(=O)NC23CCC(C(=O)O)(CC2)CC3)C(c2cccc(Cl)c2F)C2(C(=O)Nc3cc(Cl)ccc32)C12CCCCC2,IC50,second compound 0.03 µM,> 1000 nM
same,IC50,second compound 0.0949 µM,28.8 nM
same,IC50,second compound 0.3 µM,< 3.16 nM
same,IC50,second compound 0.949 µM,< 3.16 nM
same,IC50,second compound 3 µM,< 3.16 nM
same,"viability, T/C","second compound 0.03 µM, first compound 0.00316 µM",86.8%
same,"viability, T/C","second compound 0.03 µM, first compound 0.01 µM",84.2%
same,"viability, T/C","second compound 0.03 µM, first compound 0.0316 µM",77.1%
same,"viability, T/C","second compound 0.03 µM, first compound 0.1 µM",52.4%
same,"viability, T/C","second compound 0.03 µM, first compound 0.316 µM",48.4%
same,"viability, T/C","second compound 0.03 µM, first compound 1 µM",53.3%
same,"viability, T/C","second compound 0.0949 µM, first compound 0.00316 µM",68%
same,"viability, T/C","second compound 0.0949 µM, first compound 0.01 µM",68.4%
same,"viability, T/C","second compound 0.0949 µM, first compound 0.0316 µM",48.3%
same,"viability, T/C","second compound 0.0949 µM, first compound 0.1 µM",31.7%
same,"viability, T/C","second compound 0.0949 µM, first compound 0.316 µM",39.8%
same,"viability, T/C","second compound 0.0949 µM, first compound 1 µM",39%
same,"viability, T/C","second compound 0.3 µM, first compound 0.00316 µM",34.3%
same,"viability, T/C","second compound 0.3 µM, first compound 0.01 µM",26.6%
same,"viability, T/C","second compound 0.3 µM, first compound 0.0316 µM",18.2%
same,"viability, T/C","second compound 0.3 µM, first compound 0.1 µM",15.4%
same,"viability, T/C","second compound 0.3 µM, first compound 0.316 µM",17.9%
same,"viability, T/C","second compound 0.3 µM, first compound 1 µM",21.3%
same,"viability, T/C","second compound 0.949 µM, first compound 0.00316 µM",9.27%
same,"viability, T/C","second compound 0.949 µM, first compound 0.01 µM",8.09%
same,"viability, T/C","second compound 0.949 µM, first compound 0.0316 µM",6.59%
same,"viability, T/C","second compound 0.949 µM, first compound 0.1 µM",7.13%
same,"viability, T/C","second compound 0.949 µM, first compound 0.316 µM",8.2%
same,"viability, T/C","second compound 0.949 µM, first compound 1 µM",11.3%
same,"viability, T/C","second compound 3 µM, first compound 0.00316 µM",3.59%
same,"viability, T/C","second compound 3 µM, first compound 0.01 µM",3.67%
same,"viability, T/C","second compound 3 µM, first compound 0.0316 µM",2.51%
same,"viability, T/C","second compound 3 µM, first compound 0.1 µM",3.55%
same,"viability, T/C","second compound 3 µM, first compound 0.316 µM",4.83%
same,"viability, T/C","second compound 3 µM, first compound 1 µM",8.39%

# — PubChem BioAssay AID1963424 (Molecular Pharmacology Branch, DTP, NCI, 2024)
